We go through 1 compound from patent US20080119412A1, “Polypeptides for Modulating Binding of Trp Channel Proteins and Trp- Associated Proteins” (NoNO Inc., priority 2003, published 2008).

Residues, ends and D or L forms follow the SMILES beside them. *: point of attachment. Biotin = O=C1N[C@H]2[C@H](CS[C@H]2CCCCC(=O)*)N1

One test concerns the target T1, LIM Mystique d1 (Homo sapiens, UniProt Q96JY6).
T1 construct: made in house; host or cells: E. coli (DH5alpha, BL21 or JM109)
T1 sequence (Q96JY6 1-91): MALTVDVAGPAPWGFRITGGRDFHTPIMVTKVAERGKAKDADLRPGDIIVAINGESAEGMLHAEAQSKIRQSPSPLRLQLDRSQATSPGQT
The test is described as follows: G3 assay titration, GST-PDZ fusion / biotinylated peptide. Format: binding.

In the next test the target is T2, Mint 1 (d1, d2) (Homo sapiens, UniProt Q02410, K730E).
T2 construct: made in house; host or cells: E. coli (DH5alpha, BL21 or JM109)
T2 sequence (Q02410 651-828 K730E): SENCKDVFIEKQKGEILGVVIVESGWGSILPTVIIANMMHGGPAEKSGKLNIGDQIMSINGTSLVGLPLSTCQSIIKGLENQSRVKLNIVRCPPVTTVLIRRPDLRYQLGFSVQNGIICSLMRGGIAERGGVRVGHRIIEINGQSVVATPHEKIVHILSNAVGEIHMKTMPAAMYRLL
Described as above. It is filed as binding.

As for `CSCC[C@H](NC(=O)[C@H](CC(C)C)NC(=O)[C@H](CCCNC(=N)N)NC(=O)[C@@H](NC(=O)[C@H](CO)NC(=O)[C@H](CC(N)=O)NC(=O)[C@@H](NC(=O)[C@H](CO)NC(=O)[C@H](CCCNC(=N)N)NC(=O)[C@H](CCCNC(=N)N)NC(=O)[C@H](CCCNC(=N)N)NC(=O)[C@H](CCC(N)=O)NC(=O)[C@H](CCCNC(=N)N)NC(=O)[C@H](CCCNC(=N)N)NC(=O)[C@H](CCCCN)NC(=O)[C@H](CCCCN)NC(=O)[C@H](CCCNC(=N)N)NC(=O)CNC(=O)[C@H](Cc1ccc(O)cc1)NC(=O)CCCC[C@@H]1SC[C@@H]2NC(=O)N[C@@H]21)[C@@H](C)O)C(C)C)C(=O)N[C@@H](CC(C)C)C(=O)O` [Tat-TRPM7 peptide] (Biotin-YGRKKRRQRRRSTNSVRLML-OH), the EC50 on LIM Mystique d1 worked out at 90 nM; on Mint 1 (d1, d2), 180 nM.
